Measured values: patent publication US11154587B2, “Use of peptides to stimulate the immune system” (DIACCURATE, priority 2015, dated 2021)
Entries after “also recorded” stand apart in the source; their conditions may differ. Where a SMILES comes first, the peptide text is derived from it. [ ]: non-standard residue; d: D form. 2Nal = N[C@@H](Cc1ccc2ccccc2c1)C(=O)O

Key:
Recombinant PLA2G1B = target: T1, Recombinant PLA2G1B (Homo sapiens, UniProt P04054); experiment: Bioassay: recombinant PLA2GIB-mediated inhibition of IL-7-induced nuclear translocation of phospho STAT5 in CD4 T cells (STED microscopy); format: cell-based
T1 construct: sPLA2GIB was produced in E. Coli; Inclusion bodies were solubilized in urea and afterwards renatured; made in house; host or cells: E. coli
T1 sequence (P04054 23-148): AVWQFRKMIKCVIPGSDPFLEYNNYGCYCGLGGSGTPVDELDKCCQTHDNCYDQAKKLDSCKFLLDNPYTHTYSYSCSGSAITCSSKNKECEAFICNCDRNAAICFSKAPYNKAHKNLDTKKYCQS
Experimental: FIG. 1: Peptide I inhibits sPLA2G1B: Recombinant PLA2G1B (75 nanoM) was first exposed 30 mn to indicated concentrations of Peptide I. The mixture was then applied in the bioassay described in Materials and Methods. % inhibition of IL-7-induced nuclear translocation of phospho STAT5 was measured by STED microscopy. The results of two experiments are shown.
FIG. 2: Calculation of IC50 of Peptide I: Experimental data were analyzed by Prism software in order to precisely calculate the IC50.
sPLA2GIB was produced in E. Coli. Inclusion bodies were solubilized in urea and afterwards renatured. sPLA2GIB was further purified by HPLC. Homogeneity of the preparations was verified by MassSpectrometry (Malditoff). The specific activity of the enzyme was always measured and compared to standard preparations.
(§1) Inhibition of IL-7-induced phosphorylated STAT5 nuclear translocation (NTpSTAT) was measured as follows: VP plasma (5 or 10%) was first incubated with purified HD CD4 T cells (20 min) before stimulation by IL-7 (2 nM, 15 min.). Cells were then plated on polylysine coated glass slides before fixation by PFA (1.5%) and permeabilization by methanol (90% at −20° C.). pSTAT5 was then stained by rabbit anti-STAT5 and labeled with goat anti-rabbit-Atto642. The cells were analyzed by pulsed STED microscopy and the number of nuclei expressing pSTAT5 were counted.
We first investigated the effects of different doses of Peptide I on the biological activity of recombinant PLA2GIB as tested in the bioassay described in Materials and Methods. […] The experiment was repeated twice. From the experimental data we derived the corresponding theoretical curve that gives the IC50. For Peptide I, IC 50 is about 4.9 microM (FIG. 2).

[1] = target: T2, PLA2 GIB contained in the plasma of viremic patients (Homo sapiens, UniProt P04054); experiment: Bioassay: inhibition of IL-7-induced NTpSTAT5 in healthy donor CD4 T cells by plasma/sera of viremic HIV-infected patients; format: cell-based
T2 construct: CD4 lymphocytes purified from healthy donors were exposed to sera from viremic HIV-infected patients at 1% or 3% dilution; from tissue; host or cells: plasma/sera of viremic HIV-infected patients
T2 sequence (P04054 23-148): as above
Experimental: FIG. 3: Peptide I restores the activity of CD4 lymphocytes: CD4 lymphocytes purified from healthy donors were exposed to sera from viremic HIV-infected patients at 1% or 3% dilution. […] Five sera were tested and the results are given as the median+/−SD.
Viremic patients (VP) included in the study had been HIV-positive for more than one year. […] All blood samples from VP were drawn at Hôpital Bicêtre or Centre Hospitalier de Gonesse.
as §1
We have shown that PLA2 GIB contained in the plasma of viremic patients induces a blockade of IL-7-induced nuclear translocation of phospho STAT5 (NT pSTAT5). […] Here we tested the effects of Peptide I on the capacity of the sera from VP to block IL-7-induced NTpSTAT5.
The effect of plasma from various HIV viremic patients (at least 5) were titrated on the inhibition of IL-7-induced NTpSTAT5. […]

SMILES: CC(C)C[C@@H]1NC(=O)[C@H](Cc2ccc3ccccc3c2)NC(=O)[C@H](CCCNC(=N)N)NC(=O)[C@H](Cc2ccc3ccccc3c2)NC(=O)[C@H](CO)NC1=O [Peptide I, cyclic(2-NaphthylAla-Leu-Ser-2-NaphthylAla-Arg)] (cyclo([2Nal]LS[2Nal]R); ring closure inferred)
- inhibitory effect on recombinant PLA2GIB activity (Recombinant PLA2G1B; 5 microM Peptide I): effective
- inhibitory effect on recombinant PLA2GIB activity (Recombinant PLA2G1B; 10 microM Peptide I): very strong
- IC50 (Recombinant PLA2G1B; recombinant PLA2G1B 75 nanoM exposed 30 mn to Peptide I, calculated with Prism from two experiments, read-out: IC50 (inhibition of recombinant PLA2GIB biological activity)): ~4.9 µM
- maximum inhibition (plateau) with the recombinant enzyme (Recombinant PLA2G1B; recombinant pure enzyme in serum free buffer): around 80%
- reversal of sera-induced inhibition of IL-7-induced nuclear translocation of pSTAT5 ([1]; 15 microM Peptide I, sera from viremic HIV-infected patients at 1% or 3% dilution, five sera): totally reversed this inhibition; also recorded: completely reverted the activity of the sera
- inhibition achieved when the plasma is used ([1]; plasma of viremic patients): around 100%
